Reference: US20100004248A1, “Use of a Nitric Oxide Synthase Modulator for the Treatment of Cardiac Indications” (priority 2005, published 2010)

What was measured:
NOS3 = target: T1, NOS3 (Mus musculus, UniProt P70313); test: NOS3 dimer/monomer by low-temperature SDS-PAGE in TAC hearts; format: in vivo; details: WT mice, TAC 3 weeks, oral co-treatment
T1 construct: from tissue; host or cells: mouse heart (myocardium) after sham or TAC surgery
T1 sequence (P70313 2-1202 limits assumed): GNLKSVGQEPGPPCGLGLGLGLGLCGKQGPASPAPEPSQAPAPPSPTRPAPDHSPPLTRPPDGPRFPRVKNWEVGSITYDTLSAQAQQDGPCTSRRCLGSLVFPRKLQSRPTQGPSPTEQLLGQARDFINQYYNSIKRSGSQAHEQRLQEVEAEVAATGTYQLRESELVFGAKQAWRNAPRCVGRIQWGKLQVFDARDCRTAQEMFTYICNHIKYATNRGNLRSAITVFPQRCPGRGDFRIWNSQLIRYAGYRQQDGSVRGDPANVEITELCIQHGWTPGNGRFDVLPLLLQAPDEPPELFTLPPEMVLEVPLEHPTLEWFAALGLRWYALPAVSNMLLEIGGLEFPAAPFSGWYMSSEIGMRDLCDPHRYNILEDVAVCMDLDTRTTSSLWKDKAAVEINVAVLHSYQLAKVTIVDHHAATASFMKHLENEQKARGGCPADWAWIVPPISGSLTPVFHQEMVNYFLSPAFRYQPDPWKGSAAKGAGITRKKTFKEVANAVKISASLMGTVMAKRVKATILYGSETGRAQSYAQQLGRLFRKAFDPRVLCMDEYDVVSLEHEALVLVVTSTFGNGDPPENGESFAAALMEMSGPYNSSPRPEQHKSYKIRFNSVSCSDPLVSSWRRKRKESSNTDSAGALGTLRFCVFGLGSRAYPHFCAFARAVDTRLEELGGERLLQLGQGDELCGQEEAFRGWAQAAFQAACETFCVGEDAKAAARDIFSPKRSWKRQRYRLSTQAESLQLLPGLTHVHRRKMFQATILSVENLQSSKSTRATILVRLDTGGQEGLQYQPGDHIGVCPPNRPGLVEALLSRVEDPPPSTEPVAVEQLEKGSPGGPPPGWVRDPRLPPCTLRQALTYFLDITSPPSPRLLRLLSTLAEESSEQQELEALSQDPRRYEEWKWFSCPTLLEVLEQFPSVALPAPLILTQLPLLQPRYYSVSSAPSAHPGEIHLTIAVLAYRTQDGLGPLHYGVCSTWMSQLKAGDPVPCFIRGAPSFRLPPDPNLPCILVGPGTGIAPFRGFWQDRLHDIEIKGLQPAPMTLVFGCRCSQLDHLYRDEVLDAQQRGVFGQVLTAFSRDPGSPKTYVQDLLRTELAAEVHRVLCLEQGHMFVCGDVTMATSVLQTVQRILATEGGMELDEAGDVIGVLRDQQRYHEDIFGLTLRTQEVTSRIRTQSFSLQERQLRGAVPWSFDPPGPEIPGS
Procedure: (§1) SDS-resistant NOS3 dimers and monomers were assayed using low-temperature SDS PAGE under reducing or non-reducing conditions, as described previously^7. NOS3 was immunoprecipitated as described^16 and the resulting samples added to fivefold Laemmli buffer (0.32 mol/l Tris-HCl, pH 6.8, 0.5 mol/l glycine, 10% SDS, 50% glycerol, and 0.03% bromophenol blue) in non-reducing gel (no 2-mercaptoethanol) to identify dimer dissociation due to reduced disulfide bridges. To provide fully denatured control lanes, samples were boiled for 15 minutes prior to loading. Electrophoresis was performed using Tris glycine 6% gels (Invitrogen Corp.), and gels and buffers maintained in an ice bath at 4° C. and stained (SimplyBlue, Invitrogen Corp.). Calcium dependent and independent NOS activity was determined from myocardial homogenates by [3H] L-arginine to [3H] citrulline conversion (Sigma-Aldrich) as described^16. An alternative approach involved more direct Western blot analysis without requiring initial NOS IP. Cold SDS-Page Western blot analysis was performed using a self-made […] SDS-Tris gel. After overnight running on ice, the gel was transferred for 3 h to nitrocellulose membrane. […] Bound antibodies were detected with horseradish peroxidase-conjugated anti-mouse IgG and visualize with an enhanced chemiluminescence detection system.

NOS = test: Calcium dependent NOS activity, arginine to citrulline conversion, in myocardial homogenates of TAC hearts; format: in vivo, mouse; details: WT mice, TAC 3 weeks, oral co-treatment
Procedure: as §1

NOS3 dimerization (NOS3): unaltered
SMILES: Nc1nc2c(c(=O)[nH]1)NC(C(O)C(O)CO)CN2 (centres unmarked) [H4N, tetrahydroneopterin]
Ca^2+-dependent NOS activity (NOS): unaltered
